# Results: PMC3485666 (British Journal of Pharmacology, 2012)
# Legend:
# [1] = test system: S1P1 receptors; conditions: ref Piali et al., 2011; cited from earlier work
# [2] = target: GIRK channels in human atrial myocytes (Homo sapiens, UniProt P21453); assay: Electrophysiological recordings of GIRK current in human atrial myocytes; type: cell-based; conditions: S1P versus BAF312
# [3] = target: myc-tagged human S1P1 receptors (Homo sapiens, UniProt P21453); assay: Agonist-mediated internalization of S1P1 receptors in CHO cells by flow cytometry; type: cell-based; conditions: 1 µM, mean ± SD
# Chain of myc-tagged human S1P1 receptors (P21453 whole entry): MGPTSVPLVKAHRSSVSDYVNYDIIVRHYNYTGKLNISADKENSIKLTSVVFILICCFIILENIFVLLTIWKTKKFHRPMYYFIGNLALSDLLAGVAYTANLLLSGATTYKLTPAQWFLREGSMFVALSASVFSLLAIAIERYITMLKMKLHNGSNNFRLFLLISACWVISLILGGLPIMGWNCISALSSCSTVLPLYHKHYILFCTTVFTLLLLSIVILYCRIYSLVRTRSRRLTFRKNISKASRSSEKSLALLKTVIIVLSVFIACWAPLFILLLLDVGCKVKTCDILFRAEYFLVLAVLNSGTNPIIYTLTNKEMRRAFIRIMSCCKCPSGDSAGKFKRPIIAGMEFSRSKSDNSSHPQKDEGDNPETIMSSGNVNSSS
# Chain of GIRK channels in human atrial myocytes (P21453 whole entry): as above
# Chain of GIRK channels in human atrial myocytes (P48549 whole entry partner): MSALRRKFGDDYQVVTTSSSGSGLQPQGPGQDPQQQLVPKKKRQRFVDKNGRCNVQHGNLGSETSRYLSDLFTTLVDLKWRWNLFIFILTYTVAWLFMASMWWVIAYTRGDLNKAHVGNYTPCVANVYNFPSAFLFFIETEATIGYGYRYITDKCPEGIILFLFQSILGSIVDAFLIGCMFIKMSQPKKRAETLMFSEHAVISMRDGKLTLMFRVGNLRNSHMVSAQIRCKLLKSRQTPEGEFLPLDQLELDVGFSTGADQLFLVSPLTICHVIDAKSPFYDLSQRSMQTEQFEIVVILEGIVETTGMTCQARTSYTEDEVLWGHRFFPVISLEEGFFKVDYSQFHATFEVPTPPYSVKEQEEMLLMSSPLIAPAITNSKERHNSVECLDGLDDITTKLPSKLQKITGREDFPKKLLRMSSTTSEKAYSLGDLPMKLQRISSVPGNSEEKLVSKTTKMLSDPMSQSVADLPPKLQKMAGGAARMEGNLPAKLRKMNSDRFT
# Chain of GIRK channels in human atrial myocytes (P48544 whole entry partner): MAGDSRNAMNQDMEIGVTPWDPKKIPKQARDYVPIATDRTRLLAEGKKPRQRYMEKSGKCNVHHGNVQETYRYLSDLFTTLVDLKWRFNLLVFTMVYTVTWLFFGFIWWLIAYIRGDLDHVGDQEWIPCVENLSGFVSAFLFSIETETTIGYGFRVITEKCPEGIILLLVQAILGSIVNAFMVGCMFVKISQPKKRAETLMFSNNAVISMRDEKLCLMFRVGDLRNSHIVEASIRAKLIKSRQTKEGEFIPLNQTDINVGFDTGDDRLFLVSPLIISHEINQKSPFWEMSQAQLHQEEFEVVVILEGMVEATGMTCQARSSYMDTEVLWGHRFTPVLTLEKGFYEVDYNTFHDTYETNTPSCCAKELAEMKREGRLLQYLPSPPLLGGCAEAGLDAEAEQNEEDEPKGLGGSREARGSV
SMILES,Selectivity of S1P1 versus S1P3 (full agonist) [1] [fold],Selectivity of S1P1 versus S1P5 (partial agonist) [1] [fold],Potency in activating GIRK current relative to BAF312 [2],S1P1 receptors localized intracellularly ([3]; 1 h incubation followed by 3 h without compound) [%],Internalization of S1P1 receptors ([3]; 1 h incubation) [%]
CCC/N=C1\S/C(=C\c2ccc(OC[C@H](O)CO)c(Cl)c2)C(=O)N1c1ccccc1C [ponesimod],20,10,,,
"CCCCCCCCCCCCC/C=C/[C@@H](O)[C@@H](N)COP(=O)(O)O [S1P, sphingosine 1-phosphate, reference compound]",,,approximately 8 times,9 ± 9,48 ± 12
